Source: patent US10640492B2, “Tubulin inhibitor” (SHENZHEN NEPTUNUS PHARMACEUTICAL RESEARCH INSTITUTE CO., …, priority 2016, dated 2020)

Tests used:
[1] = tested on: drug-resistant MES-SA cells (p-glycoprotein induced); experiment: Inhibitory effect on tumor proliferation, drug-resistant MES-SA transplanted tumor; type: in vivo; conditions: drug-resistant MES-SA nude mice, dose that does not reduce body weight, vs blank vehicle (FIG. 1)
Description: MES-SA cells (derived from ATCC) were cultured in low concentration of adriamycin for a long time to maintain sufficient cell viability and induced the expression of p-glycoprotein. After culturing for 10 months, the results of induced expression were detected by WB. After successful induction, the cells were cultured for one week in adriamycin-free medium. The tumor cells with adjusted concentration were inoculated into the armpit of nude mice. The transplanted tumors were treated with different drugs when they grew to a certain volume. Different doses of different drugs were administrated to blank mice to explore the drug dose not affecting the body weight of the animals, namely the dose to be administrated to treat the animals with transplanted tumors.

[2] = tested on: blood flow distribution in tissues and tumor tissue; experiment: Blood flow distribution of tissues and tumor; type: in vivo, nude mice; conditions: two hours after administration, same pharmacodynamic dose, vs blank vehicle
Source text: In this example, the effects of drugs on blood flow distribution of different tissues and organs at the same pharmacodynamic dose were simultaneously tested.

tubulin in HuVEC cells = experiment: Action on microtubule function, α-tubulin staining in HuVEC; type: cell-based, human; conditions: 2 μM, 30 minutes, vs DMSO control
Source text: Human umbilical vein endothelial cells (HuVEC from Cambrex) were used in this study.

[3] = tested on: AGS human gastric adenocarcinoma cell strain; experiment: CCK-8 cytotoxicity IC50, AGS; conditions: 72 h, read-out: cytotoxicity IC50
Description: AGS human gastric adenocarcinoma cell strain (purchased from Shanghai Cell Resource Center, Chinese Academy of Sciences)
(§1) a) The compound was serially diluted with DMSO starting from 0.5 μM, using twice echelon dilution.
(§2) The logarithmic growth phase cells were collected and counted. The cells were re-suspended in complete medium, whose concentration was adjusted according to the test results of the cell density optimization, and then seeded into 96-well plates with 100 μl of the cell suspension to each well. The cells were incubated in a 37° C., 100% relative humidity, 5% CO2 incubator for 24 hours.
(§3) b) The test compound was diluted with the medium to the corresponding action concentrations set up, and added into the cells in the plates at 25 μl/well. The test compound was prepared in 9 final action concentrations, which were obtained by sequentially diluted from 500 nM using twice echelon dilution.
(§4) c) The cells were incubated in a 37° C., 100% relative humidity, 5% CO2 incubator for 72 hours.
(§5) d) The medium was removed from the cells, and a complete medium containing 10% CCK-8 was added and incubated in a 37° C. incubator for 1-4 hours.
(§6) e) After gentle shaking, the absorbance at 450 nm of the sample was measured on a SpectraMax M5 Microplate Reader, and the inhibition ratio was calculated using the absorbance at 650 nm as reference.
(§7) The inhibition ratio of the drug on tumor cell growth was calculated as follows: tumor cell growth inhibition %=[(Ac−As)/(Ac−Ab)]×100%
(§8) The IC50 curve was fitted and the IC50 value was calculated using the software Graphpad Prism 5 and using the calculation formula log(inhibitor) vs. normalized response-variable slope or log(inhibitor) vs. response-variable slope.

[4] = tested on: A-673 human rhabdomyosarcoma cell strain; experiment: CCK-8 cytotoxicity IC50, A-673; conditions: A673, 72 h, read-out: cytotoxicity IC50
Description: (§9) To test the cytotoxic IC50 values of 14 candidate compounds against 5 cell strains (MDA-MB-231, HT-1080, AGS, A-673 & HUVEC) using a CCK-8 test kit.
as §1, §2, §3, §4, §5, §6, §7, §8

[5] = CCK-8 cytotoxicity IC50, HUVEC; conditions: human, HUVEC umbilical vein endothelial cells
Description: HUVEC human umbilical vein endothelial cell strain (purchased from ScienCell Research Laboratories, Cat #8000, Lot #11233)
as §1, §2, §3, §4, §5, §6, §7, §8

[6] = tested on: HT-1080 human fibrosarcoma cell strain; experiment: CCK-8 cytotoxicity IC50, HT-1080; conditions: HT-1080, 72 h, read-out: cytotoxicity IC50
Description: as §9, §1, §2, §3, §4, §5, §6, §7, §8

[7] = tested on: MDA-MB-231 human breast cancer cell strain; experiment: CCK-8 cytotoxicity IC50, MDA-MB-231; conditions: MDA-MB-231, 72 h, read-out: cytotoxicity IC50
Description: as §9
MDA-MB-231 human breast cancer cell strain (purchased from Shanghai Cell Resource Center, Chinese Academy of Sciences)
as §1, §2, §3, §4, §5, §6, §7, §8

neutrophil count = experiment: Effect on the neutrophil count at equivalent pharmacodynamic dose; conditions: rats, continuous administration for two weeks (FIG. 3)
Source text: Multiple doses of different drugs were administrated to the nude mice respectively and the potency of the drugs in inhibiting the transplanted tumor in the nude mice was investigated. Base on the investigation, the equivalent dose of each drug was identified and converted to rat dose before administrated to the rats. That is, by administrating the rats with relatively equivalent pharmacodynamic dose, the effect of the drugs on the neutrophil count was examined. After continuously administration for two weeks, blood samples were collected and neutrophil counts were measured (FIG. 3).

Structure (SMILES): CC(C)(C)c1nc[nH]c1/C=c1\[nH]c(=O)/c(=C/C=C/c2cccc(F)c2)[nH]c1=O [Compound 7]
- anti-tumor proliferation effect (tumor weight) [1]: can effectively exert anti-tumor proliferation effects
- distribution of blood flow in tissues except tumor tissues [2]: did not significantly affect the distribution of blood flow in tissues except tumor tissues
- intratumoral blood flow distribution [2]: can significantly reduce the intratumoral blood flow distribution
- cell membrane blebbing (tubulin in HuVEC cells): induced
- microtubule depolymerization (tubulin in HuVEC cells): induced
- IC50 [3]: 43 nM
- IC50 [4]: 35.4 nM
- IC50 at 72 h [5]: 94.9 nM
- IC50 [6]: 43.6 nM
- IC50 [7]: 39.5 nM
- neutrophil count (neutrophil count): had no obvious effect on neutrophils

Structure (SMILES): CC(C)(C)c1[nH]cnc1/C=c1\[nH]c(=O)/c(=C/C=C/c2cccc(C#N)c2)[nH]c1=O [Compound 15]
- anti-tumor proliferation effect (tumor weight) [1]: can effectively exert anti-tumor proliferation effects
- distribution of blood flow in tissues except tumor tissues [2]: did not significantly affect the distribution of blood flow in tissues except tumor tissues
- intratumoral blood flow distribution [2]: can significantly reduce the intratumoral blood flow distribution
- cell membrane blebbing (tubulin in HuVEC cells): induced
- microtubule depolymerization (tubulin in HuVEC cells): induced
- IC50 [3]: 63.5 nM
- IC50 [4]: 94.9 nM
- IC50 at 72 h [5]: 78.6 nM
- IC50 [6]: 78.8 nM
- IC50 [7]: 123 nM
- neutrophil count (neutrophil count): had no obvious effect on neutrophils

Structure (SMILES): CC(C)(C)c1[nH]cnc1/C=C1\NC(=O)[C@H](Cc2ccccc2)NC1=O [tert-butyl-phenylahistin, reference compound]
- cell membrane blebbing (tubulin in HuVEC cells): induced
- microtubule depolymerization (tubulin in HuVEC cells): induced

Structure (SMILES): CC(C)(C)c1[nH]cnc1/C=c1\[nH]c(=O)/c(=C/C=C/c2ccc(OC(F)(F)F)cc2)[nH]c1=O [Compound 10]
- anti-tumor proliferation effect (tumor weight) [1]: can effectively exert anti-tumor proliferation effects
- distribution of blood flow in tissues except tumor tissues [2]: did not significantly affect the distribution of blood flow in tissues except tumor tissues
- intratumoral blood flow distribution [2]: can significantly reduce the intratumoral blood flow distribution
- cell membrane blebbing (tubulin in HuVEC cells): induced
- microtubule depolymerization (tubulin in HuVEC cells): induced
- IC50 [3]: 94.9 nM
- IC50 [4]: 165 nM
- IC50 at 72 h [5]: 363 nM
- IC50 [6]: 224 nM
- IC50 [7]: 105 nM
- neutrophil count (neutrophil count): had no obvious effect on neutrophils

Structure (SMILES): CC(=O)O[C@H]1C(=O)[C@@]2(C)[C@H]([C@H](OC(=O)c3ccccc3)[C@]3(O)C[C@H](OC(=O)[C@H](O)[C@@H](NC(=O)c4ccccc4)c4ccccc4)C(C)=C1C3(C)C)[C@]1(OC(C)=O)CO[C@@H]1C[C@@H]2O [Paclitaxel, paclitaxel, reference compound]
- microtubule depolymerization (tubulin in HuVEC cells): did not induce microtubule depolymerization

Structure (SMILES): COc1ccc(/C=C/C=c2\[nH]c(=O)/c(=C/c3nc[nH]c3C(C)(C)C)[nH]c2=O)cc1 [Compound 12]
- anti-tumor proliferation effect (tumor weight) [1]: can effectively exert anti-tumor proliferation effects
- distribution of blood flow in tissues except tumor tissues [2]: did not significantly affect the distribution of blood flow in tissues except tumor tissues
- intratumoral blood flow distribution [2]: can significantly reduce the intratumoral blood flow distribution
- cell membrane blebbing (tubulin in HuVEC cells): induced
- microtubule depolymerization (tubulin in HuVEC cells): induced
- IC50 [3]: 35.3 nM
- IC50 [4]: 37.3 nM
- IC50 at 72 h [5]: 43.1 nM
- IC50 [6]: 136 nM
- IC50 [7]: 45.5 nM
- neutrophil count (neutrophil count): had no obvious effect on neutrophils
